# From US20250019376A1, “CHROMANE AMIDINE MONOBACTAM ANTIBIOTICS” (priority 2021, published 2025)
# How the values were obtained:
# Conditions in all cases: lowest concentration inhibiting 95% of growth (OD600); with BLi relebactam 4 μg/mL; 22 hours, 35±2° C.
# [1] = system: Escherichia co/i expressing NDM-1 (CLB30016); assay: Growth inhibitory concentration (OD600), E. coli CLB30016; assay type: cell-based, Escherichia coli
# Method: (§1) The concentrations of compounds required to inhibit the growth of various strains of bacteria were determined in an assay that assessed bacterial growth by measuring optical density at 600 nm (OD600). The bacterial strains tested included the clinical strains Escherichia co/i expressing NDM-1 (CLB30016), Klebsiella pneumoniae expressing KPC-1 (CL6569), Acinetobacter baumannii expressing TEM-1, AmpC, and Oxa-24/40 (CL6188) and Pseudomonas aeruginosa expressing AmpC (CL5701). All compounds were tested in the presence of a f3 lactamase inhibitor (BLi, Relebactam) in 384-well microplates.
# (§2) The clinical strains were stored as frozen single use stocks, thawed and diluted into 1.1× cation-adjusted Mueller-Hinton 11 broth to achieve approximately 2×10^5 CFU/mL. Test compounds were dissolved in DMSO and diluted 1:50 in the assay, resulting in a final concentration range of 100 μM to 0.098 μM. On the day of the assay, 1 μL of test compound was added to the plate followed by 4 μL of 50 μg/mL BLi in MOPS buffer and 45 μL of diluted bacteria. Plates were centrifuged at 1000 rpm for 30 seconds, shaken at approximately 800 rpm for 1 minute, and incubated at 35±2° C. for 22 hours. The concentration of BLi used in the assay was 4 μg/mL. At the end of the incubation, absorbance at 600 nm was determined using a spectrophotometer. Inhibition was quantitated by identifying the lowest concentration of test compound that was required to inhibit […] of the growth of the bacteria.
# [2] = system: Klebsiella pneumoniae expressing KPC-1 (CL6569); assay: Growth inhibitory concentration (OD600), K. pneumoniae CL6569; assay type: cell-based
# Method: as §1, §2
# [3] = system: Pseudomonas aeruginosa expressing AmpC (CL5701); assay: Growth inhibitory concentration (OD600), P. aeruginosa CL5701; assay type: cell-based
# Method: as §1, §2
# [4] = system: Acinetobacter baumannii expressing TEM-1, AmpC, and Oxa-24/40 (CL6188); assay type: cell-based
# Method: as §1, §2
Structure (SMILES),EC_CLB30016 MITC95 [1] [µM],KP_CL6569 MITC95 [2] [µM],PA_CL5701 MITC95 [3] [µM],AB_CL6188 MITC95 [4] [µM]
"CC1(C)[C@H](NC(=O)/C(=N\O[C@](C)(C(=O)O)[C@H]2CCc3cc(C(=N)N[C@H]4C[C@@](N)(C(O)CO)C4)ccc3O2)c2csc(N)n2)C(=O)N1OS(=O)(=O)O (stereo partly drawn) [Compound 99, (S)-2-((R)-6-(N-((1R,3R)-3-amino-3-((R)-1,2-dihydroxyethyl)cyclobutyl)carbamimidoyl)chroman-2-yl)-2-((((Z)-1-(2-aminothiazol-4-yl)-2-(((S)-2,2-dimethyl-4-oxo-1-(sulfooxy)azetidin-3-yl)amino)-2-oxoethylidene)amino)oxy)propanoic acid]",6.25,0.7813,3.125,12.5
"COCC[C@]1(N)CC[C@@H](NC(=N)c2ccc3c(c2)CC[C@H]([C@](C)(O/N=C(\C(=O)N[C@@H]2C(=O)N(OS(=O)(=O)O)C2(C)C)c2csc(N)n2)C(=O)O)O3)CC1 [Compound 63, (S)-2-((R)-6-(N-((1s,4S)-4-amino-4-(2-methoxyethyl)cyclohexyl)carbamimidoyl)chroman-2-yl)-2-((((Z)-1-(2-aminothiazol-4-yl)-2-(((S)-2,2-dimethyl-4-oxo-1-(sulfooxy)azetidin-3-yl)amino)-2-oxoethylidene)amino)oxy)propanoic acid]",12.5,0.7813,3.125,6.25
"CC1(C)[C@H](NC(=O)/C(=N\O[C@](C)(C(=O)O)[C@H]2CCc3cc(C(=N)N[C@H]4C[C@@](N)(CCO)C4)ccc3O2)c2csc(N)n2)C(=O)N1OS(=O)(=O)O [Compound 87, (S)-2-((R)-6-(N-((1r,3R)-3-amino-3-(2-hydroxyethyl)cyclobutyl)carbamimidoyl)chroman-2-yl)-2-((((Z)-1-(2-aminothiazol-4-yl)-2-(((S)-2,2-dimethyl-4-oxo-1-(sulfooxy)azetidin-3-yl)amino)-2-oxoethylidene)amino)oxy)propanoic acid]",6.25,0.3906,1.563,4.688
"CC1(C)[C@H](NC(=O)/C(=N\O[C@](C)(C(=O)O)[C@H]2CCc3cc(C(=N)NC4CCC(N)(CO)CC4)ccc3O2)c2csc(N)n2)C(=O)N1OS(=O)(=O)O (stereo partly drawn) [Compound 69, (S)-2-((R)-6-(N-((1r,4R)-4-amino-4-(hydroxymethyl)cyclohexyl)carbamimidoyl)chroman-2-yl)-2-((((Z)-1-(2-aminothiazol-4-yl)-2-(((S)-2,2-dimethyl-4-oxo-1-(sulfooxy)azetidin-3-yl)amino)-2-oxoethylidene)amino)oxy)propanoic acid]",6.25,0.3906,1.563,4.688
"CC1(C)[C@H](NC(=O)/C(=N\O[C@](C)(C(=O)O)[C@H]2CCc3cc(C(=N)N[C@H]4CC[C@H](N)CC4)ccc3O2)c2csc(N)n2)C(=O)N1OS(=O)(=O)O [Compound 32, (S)-2-((R)-6-(N-((1r,4R)-4-aminocyclohexyl)carbamimidoyl)chroman-2-yl)-2-((((Z)-1-(2-aminothiazol-4-yl)-2-(((S)-2,2-dimethyl-4-oxo-1-(sulfooxy)azetidin-3-yl)amino)-2-oxoethylidene)amino)oxy)propanoic acid]",3.125,0.3906,1.563,3.125
"CC1(C)[C@H](NC(=O)/C(=N\O[C@](C)(C(=O)O)[C@H]2CCc3cc(C(=N)N[C@H]4CC[C@](O)(CN)CC4)ccc3O2)c2csc(N)n2)C(=O)N1OS(=O)(=O)O [Compound 59, (S)-2-((R)-6-(N-((1s,4S)-4-(aminomethyl)-4-hydroxycyclohexyl)carbamimidoyl)chroman-2-yl)-2-((((Z)-1-(2-aminothiazol-4-yl)-2-(((S)-2,2-dimethyl-4-oxo-1-(sulfooxy)azetidin-3-yl)amino)-2-oxoethylidene)amino)oxy)propanoic acid]",12.5,0.3906,1.563,3.125
"CC1(C)[C@H](NC(=O)/C(=N\O[C@](C)(C(=O)O)[C@H]2CCc3cc(C(=N)N[C@H]4C[C@](N)(CCO)C4)ccc3O2)c2csc(N)n2)C(=O)N1OS(=O)(=O)O [Compound 86, (S)-2-((R)-6-(N-((1s,3S)-3-amino-3-(2-hydroxyethyl)cyclobutyl)carbamimidoyl)chroman-2-yl)-2-((((Z)-1-(2-aminothiazol-4-yl)-2-(((S)-2,2-dimethyl-4-oxo-1-(sulfooxy)azetidin-3-yl)amino)-2-oxoethylidene)amino)oxy)propanoic acid]",6.25,0.3906,1.563,6.25
"CC1(C)[C@H](NC(=O)/C(=N\O[C@](C)(C(=O)O)[C@H]2CCc3cc(C(=N)N[C@]4(C)CC[C@@H](N)CC4)ccc3O2)c2csc(N)n2)C(=O)N1OS(=O)(=O)O [Compound 71, (S)-2-((R)-6-(N-((1r,4R)-4-amino-1-methylcyclohexyl)carbamimidoyl)chroman-2-yl)-2-((((Z)-1-(2-aminothiazol-4-yl)-2-(((S)-2,2-dimethyl-4-oxo-1-(sulfooxy)azetidin-3-yl)amino)-2-oxoethylidene)amino)oxy)propanoic acid]",9.375,0.7813,1.563,4.688
"CC1(C)[C@H](NC(=O)/C(=N\O[C@](C)(C(=O)O)[C@H]2CCc3cc(C(=N)N[C@H]4C[C@](N)(C(O)CO)C4)ccc3O2)c2csc(N)n2)C(=O)N1OS(=O)(=O)O (stereo partly drawn) [Compound 100, (S)-2-((R)-6-(N-((1S,3S)-3-amino-3-((R)-1,2-dihydroxyethyl)cyclobutyl)carbamimidoyl)chroman-2-yl)-2-((((Z)-1-(2-aminothiazol-4-yl)-2-(((S)-2,2-dimethyl-4-oxo-1-(sulfooxy)azetidin-3-yl)amino)-2-oxoethylidene)amino)-oxy)propanoic acid]",6.25,0.7813,1.563,6.25
"CC1(C)[C@H](NC(=O)/C(=N\O[C@](C)(C(=O)O)[C@H]2CCc3cc(C(=N)N[C@H]4C[C@]5(CCNC5)C4)ccc3O2)c2csc(N)n2)C(=O)N1OS(=O)(=O)O [Compound 22, (S)-2-((R)-6-(N-((2r,4S)-6-azaspiro[3.4]octan-2-yl)carbamimidoyl)chroman-2-yl)-2-((((Z)-1-(2-aminothiazol-4-yl)-2-(((S)-2,2-dimethyl-4-oxo-1-(sulfooxy)azetidin-3-yl)amino)-2-oxoethylidene)amino)oxy)propanoic acid]",3.125,0.3906,1.563,3.125
